How the values were obtained:
[1] = system: human keratinocytes cell line (HaCaT cells); experiment: In vitro cytotoxicity, MTS assay; assay type: cell-based; conditions: 2 h
Protocol: Compounds 144, 148, 149, 151, 155, and 158 were assayed (at concentrations of 16, 32, and 64 μg/mL) against a human keratinocytes cell line (HaCaT cells) to determine their in vitro potential toxic effect. Briefly, cells were cultured in Dulbecco's Modified Eagle Medium (DMEM) supplemented with 10% fetal bovine serum (FBS) and penicillin-streptomycin at 37° C. in presence of 5% CO2. Compounds were added in the first row of the 96-well plate. Control cells received DMSO alone at a concentration equivalent to that in drug-treated wells. The cells were incubated with the compounds (in triplicate) in a 96-well plate at 37° C. in presence of 5% CO2 for two hours. The assay reagent MTS 3-(4,5-dimethylthiazol-2-yl)-5-(3-carboxymethoxyphenyl)-2-(4-sulfophenyl)-2H-tetrazolium) (Promega, Madison, Wis., USA) was subsequently added and the plate was incubated for three to four hours. Absorbance readings (at OD490) were recorded using a kinetic microplate reader (Molecular Devices, Sunnyvale, Calif., USA). The quantity of viable cells after treatment with each compound was expressed as a percentage of the viability to DMSO-treated control cells (average of triplicate wells±standard deviation).
FIG. 2. Analyzing the toxicity of compounds 144, 148, 149, 151, 155 and 158 (tested in triplicates at 16, 32 and 64 μg/mL) against human keratinocytes cells (HaCaT) using the MTS 3-(4,5-dimethylthiazol-2-yl)-5-(3-carboxymethoxyphenyl)-2-(4-sulfophenyl)-2H-tetrazolium) assay. Results are presented as percent viable cells relative to DMSO (negative control to determine a baseline measurement for the cytotoxic impact of each compound). The absorbance values represent an average of three samples analyzed for each compound. Error bars represent standard deviation values. The data were analyzed via a two-way ANOVA with post-hoc Dunnett's test for multiple comparisons. An asterisk (*) denotes statistical significance (P<0.05) between results for compounds and DMSO.

[2] = system: murine macrophage (J774) cell line; experiment: In vitro cytotoxicity, MTS assay; assay type: cell-based; conditions: J774, 24 hours incubation
Protocol: Compounds were assayed against a murine macrophage (J774) cell line to determine their in vitro potential toxic effect. Cells were cultured in Dulbecco's Modified Eagle Medium (DMEM) supplemented with 10% FBS at 37° C. with 5% CO2. Control cells received DMSO alone at a concentration equal to that in drug-treated cell samples. The cells were incubated with the compounds (in triplicate) in a 96-well plate at 37° C. with 5% CO2 for 24 hours. The assay reagent MTS; 3-(4,5-dimethylthiazol-2-yl)-5-(3-carboxymethoxyphenyl)-2-(4-sulfophenyl)-2H-tetrazolium) (Promega, Madison, Wis., USA) was subsequently added and the plate was incubated for three to four hours. Absorbance readings (at OD490) were recorded using a kinetic microplate reader (Molecular Devices, Sunnyvale, Calif., USA). The quantity of viable cells after treatment with each compound was expressed as a percentage of the viability relative to DMSO-treated control cells (average of triplicate wells±standard deviation). FIG. 5. […] Results are presented as percent viable mammalian cells (measured as average absorbance ratio relative to DMSO). The absorbance values represent an average of a minimum of three samples analyzed for each compound. Error bars represent standard deviation values for the absorbance values.

SMILES	tolerable concentration as multiple of MIC against MRSA [1] [times]	concentration tolerable to J774 cells [2] [ng/mL]
C=C1C(=O)O[C@H](c2ccccc2)[C@@H]1c1cccc2ccccc12 [Compound 151]	16 to 32	–
C=C(C(=O)OC)C(c1ccc2ccccc2c1)C(O)c1cccc2ccccc12 (centres unmarked) [Compound 148]	–	≤ 8000

— patent US20210317099A1, “SAFER, POTENT, AND FAST ACTING ANTIMICROBIAL AGENTS” (Purdue Research Foundation, priority 2020, published 2021)
